One series has as its target T1, Adenosine A3 receptor (Homo sapiens, UniProt P0DMS8).
T1 construct: expressed in transfected cells; host or cells: CHO (Chinese hamster ovary) cells, stably double-transfected
T1 sequence (P0DMS8 1-318): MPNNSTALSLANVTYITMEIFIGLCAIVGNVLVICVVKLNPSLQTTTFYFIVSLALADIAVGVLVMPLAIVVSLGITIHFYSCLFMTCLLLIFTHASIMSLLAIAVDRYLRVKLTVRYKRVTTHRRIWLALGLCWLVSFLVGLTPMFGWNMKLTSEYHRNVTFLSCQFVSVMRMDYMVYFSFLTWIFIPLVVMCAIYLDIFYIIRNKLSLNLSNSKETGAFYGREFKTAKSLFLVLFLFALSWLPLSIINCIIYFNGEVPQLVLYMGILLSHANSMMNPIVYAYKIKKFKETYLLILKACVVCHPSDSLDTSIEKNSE
As to the kind of experiment: FLIPR intracellular Ca2+ functional assay, recombinant CHO cells (A3/Gα6qi4myr). Format: cell-based. Particulars: read-out: EC50 values (agonist activity at adenosine receptors) A3. On the procedure: (§1) In Vitro Functional Assays with Recombinant Cell Lines:
(§2) Functional assays were performed by detection of agonist-induced changes in the intracellular concentration of Ca^2+ in recombinant cell lines expressing adenosine receptor subtypes using the FLIPR™ (fluorescence imaging plate reader, Molecular Devices) technology. To allow optimal signalling through Ca^2+, chinese hamster ovary (CHO) cells were stably double-transfected with cDNAs to achieve expression of suitable combinations of adenosine receptor subtypes (A1, A2a, A2b or A3) with either G-protein Gα16 or hybrid protein Gα6qi4myr (German Patent Application no. 100333532.2). Optimal signals were achieved using combinations as follows:
(§3) For assays, recombinant cells were seeded in 96-well dishes (50000 cells/well) and grown overnight. Medium was then removed and cells incubated for 1 hour in buffer containing the dye Fluo-4. After incubation with dye, cells were washed, test compound added and changes in intracellular Ca^2+ concentration measured by FLIPR. Measured values were expressed as % change relative to controls (0%: no test compound added; 100%: 1 μM Adenosine added) and used for calculation of dose-response curves and subsequent determination of EC50 values.

The target of the next series is T2, Adenosine A1 receptor (Homo sapiens, UniProt P30542).
T2 construct: expressed in transfected cells; host or cells: CHO (Chinese hamster ovary) cells, stably double-transfected
T2 sequence (P30542 1-326): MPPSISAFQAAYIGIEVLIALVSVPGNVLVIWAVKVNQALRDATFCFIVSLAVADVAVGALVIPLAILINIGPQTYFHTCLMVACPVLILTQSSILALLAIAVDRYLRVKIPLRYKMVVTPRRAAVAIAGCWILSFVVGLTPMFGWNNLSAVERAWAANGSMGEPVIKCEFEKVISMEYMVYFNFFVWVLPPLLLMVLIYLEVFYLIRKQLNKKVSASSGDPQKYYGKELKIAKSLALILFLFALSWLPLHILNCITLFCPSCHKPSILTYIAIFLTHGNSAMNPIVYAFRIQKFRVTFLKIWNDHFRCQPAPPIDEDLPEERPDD
As to the kind of experiment: FLIPR intracellular Ca2+ functional assay, recombinant CHO cells (A1/Gα6qi4myr). Conditions: read-out: EC50 values (agonist activity at adenosine receptors) A1. Format: cell-based. On the procedure:
as §1, §2, §3

Another series deals with T3, Adenosine A2b receptor (Homo sapiens, UniProt P29275).
T3 construct: expressed in transfected cells; host or cells: CHO (Chinese hamster ovary) cells, stably double-transfected
T3 sequence (P29275 1-332): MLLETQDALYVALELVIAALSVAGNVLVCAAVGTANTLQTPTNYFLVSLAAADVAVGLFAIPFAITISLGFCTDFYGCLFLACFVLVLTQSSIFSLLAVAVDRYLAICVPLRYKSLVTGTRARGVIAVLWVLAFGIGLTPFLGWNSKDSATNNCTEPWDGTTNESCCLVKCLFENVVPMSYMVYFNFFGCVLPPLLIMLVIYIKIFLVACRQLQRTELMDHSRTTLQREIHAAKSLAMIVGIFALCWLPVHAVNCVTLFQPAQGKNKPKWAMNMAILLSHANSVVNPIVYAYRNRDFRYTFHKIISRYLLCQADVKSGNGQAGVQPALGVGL
As to the kind of experiment: FLIPR intracellular Ca2+ functional assay, recombinant CHO cells (A2b/Gα16). Format: cell-based. On the procedure:
as §1, §2, §3

For a further series, the target named is T4, Adenosine A2a receptor (Homo sapiens, UniProt P29274).
T4 construct: expressed in transfected cells; host or cells: CHO (Chinese hamster ovary) cells, stably double-transfected
T4 sequence (P29274 whole entry): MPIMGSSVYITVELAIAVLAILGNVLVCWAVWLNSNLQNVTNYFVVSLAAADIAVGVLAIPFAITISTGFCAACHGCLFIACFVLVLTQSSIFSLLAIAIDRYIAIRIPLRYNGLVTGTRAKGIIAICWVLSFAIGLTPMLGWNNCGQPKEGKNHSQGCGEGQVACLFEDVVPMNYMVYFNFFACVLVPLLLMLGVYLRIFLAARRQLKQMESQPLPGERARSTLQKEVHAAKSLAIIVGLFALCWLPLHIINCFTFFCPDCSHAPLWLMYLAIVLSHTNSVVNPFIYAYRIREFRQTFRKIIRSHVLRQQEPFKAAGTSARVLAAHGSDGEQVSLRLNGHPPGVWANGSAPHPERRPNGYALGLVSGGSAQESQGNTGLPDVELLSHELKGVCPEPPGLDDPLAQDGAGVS
The series is described as follows: FLIPR intracellular Ca2+ functional assay, recombinant CHO cells (A2a/Gα16). Format: cell-based. On the procedure:
as §1, §2, §3

The subject of series [1] is isolated guinea pig atrium. As to the kind of experiment: Effect on the isolated guinea pig atrium (contractile force, heart rate). Particulars: for Contractile force: at 30 μM; for Heart rate: at 1–100 μM. On the procedure: D. Effect on the Isolated Guinea Pig Atrium:
Guinea pigs of either sex were killed by a blow on the back of the neck and exsanguinated.
Their heart was taken out and the atria removed. The preparation (atrium) was immediately transferred to Ringer solution (JT 431) which was at a temperature of 32° C. and was bubbled with a mixture of 95% O2 and 5% CO2. The composition of the solution in […] was: NaCl 9.0; KCl 0.42 CaCl2 0.24; NaHCO3 0.2; glucose 1.0. The atrium beats spontaneously with an initial tension of 500 mg. The contractile force and the heart rate was recorded with a computer program and automatically calculated (B-mon and A-mon PC programs. Fa. Jäckel. Hanau. GERMANY). After equilibration, the test compound was added to a final bath concentration. N was 4-6 per concentration.

The next series has as its system isolated rat adipocytes. As to the kind of experiment: Antilipolytic effect in isolated rat adipocytes. Format: cell-based. Conditions: Adipocyte, adenosine deaminase-induced lipolysis (glycerol and free fatty acid release). On the procedure: E. Antilipolytic Effect in Isolated Rat Adipocytes:
For the preparation of isolated rat adipocytes, epididymal fat pads were obtained from male Sprague-Dawley rats (150-180 g) killed by decapitation. The main fat pad blood vessel was removed with forceps and the pads were cut into small pieces. Digestion was carried out at 37° C. in a shaking water bath by treating 1 g of sliced pad for 20 min with 3 ml of 1 mg/ml collagenase (type I, CLS, Worthington) in 1% BSA, fraction V, in KRH (Krebs-Ringer solution buffered with 25 mM HEPES/KOH, pH 7.4, containing 2.5 mM CaCl2, 2 mM glucose, 1 mM sodium pyruvate, 0.5 units/ml adenosin deaminase and 200 nM phenylisopropyl adenosine). The adipocytes were filtered through nylon mesh of sufficient pore size that no pressure other than gentle teasing with a plastic spatula was necessary for the cells to pass through. After three cycles of centrifugation (500 g, 1 min), aspiration of the infranatant. and resuspension in KRH containing 1% BSA, the cells were suspended in KRH containing 4% defatted BSA. Small aliquots of the final suspension were aspirated into capillary hematocrit tubes and centrifuged for 1 min in a Microhematocrit centrifuge in order to determine what fraction of the suspension consisted of fat cells. Results expressed as activities per unit volume of packed adipocytes (corresponding to equivalent numbers of cells) are based on this centrifugation procedure. Lipolysis was initiated by addition of a 100 μl aliquot of the adipocyte suspension to 700 μl of incubation medium [prewarmed to 37° C. and consisting of KRH, 4% defatted BSA and 1 U/ml adenosine deaminase (type I, Sigma)], with or without addition of 8 μl of a solution of the appropriate test substance in 100% DMSO (at a concentration corresponding to 100 times its concentration in the final mixture). […] Incubations were performed in 5 ml polypropylene vials agitated in a shaking water bath (140 cycles/min, amplitude 4.5 cm) at 37° C. for 20, 40, and 60 min. The incubation was terminated by addition of 200 μl of 50 mM EDTA buffered to pH 7.4 with Tris. For the glycerol determination, the whole mixture was mixed rapidly and homogenized with a ground glass pestle in a 1 ml ground glass homogenizing tube (10 pulses). The homogenate was transferred immediately to a 1.5 ml Eppendorf cup precooled to 4° C., after which the extracts were maintained at 4° C. The homogenate was then centrifuged (10,000 g, 15 min) and the infranatant below the fat cake removed with a glass Pasteur pipette. taking care not to aspirate the membrane pellet. and transferred to another Eppendorf cup. 300 μl aliquots of the infranatant were added to 300 μl volumes of 10% (w/v) HClO4. The precipitate was in each case removed by centrifugation (10,000 g, 2 min) and the supernatant neutralized with 20% (w/v) KOH, followed by addition of 50 μl of 1 M Tris/HCl, pH 7.4, A 50 μl sample was then incubated (5 min, 37° C.) with 1 ml of 0.1 M HEPES/KOH, pH 7.5, containing 2 mM ATP, 0.5 mM 4-aminoantipyrine, 1 mM EDTA, 0.5 U glycerol kinase, 4 U glycerol-3-phosphate oxidase, 2 U peroxidase, 2.7 mM p-chlorophenol, 0.04% Triton X-100 and 2 mM MgSO4.7H2O, and the glycerol content determined from the absorbance at 505 nm. For the determination of free fatty acids, 300 μl aliquots of the incubation mixture were added to 3 ml of chloroform/heptane (1:1 v/v) containing 2% (v/v) methanol. and the liberated free fatty acids determined with copper reagent and bathocuproine. The inhibitory activities of the cyclipostins were calculated from the combined results (glycerol and free fatty acid release) by plotting the log of the dose against the percent response (with the adenosine deaminase-induced lipolysis set at 100%). Data in the linear portion of the log (dose)-percent response curves were analyzed using parallel-line bioassay techniques.

The structures appear in SMILES notation.

The compound `O[C@@H]1[C@@H](CF)C[C@@H](n2cnc3c(N[C@H]4CCN(c5ccc(C(F)(F)F)cc5)C4)ncnc32)[C@@H]1O` [Example 7, (1R,2S, 3R, 5S)-3-{6-[1-(4-trifluoromethyl-phenyl-1-yl) -pyrrolidin-3(S)-ylamino]-purin-9-yl}-5-fluoromethyl-cyclopentane-1,2-diol] gave a melting point of 178 °C. In addition, the EC50 at Adenosine A3 receptor is greater than 50000 nM. In addition, on Adenosine A1 receptor, the EC50 was 1250 nM. Further, on Adenosine A2b receptor (read-out: EC50 values (agonist activity at adenosine receptors) A2B), the EC50 was greater than 30000 nM. Besides, the “EC50 values (agonist activity at adenosine receptors) A2A” value on Adenosine A2a receptor is “Inactive”. Besides, in series [1], the Contractile force is recorded as −1% at 30 μM and the Heart rate result was “no effect at 1–100 μM”. Further, in the series on isolated rat adipocytes, the IC50 was determined as 5 nM.

Take `O[C@@H]1[C@@H](COC(F)(F)F)C[C@@H](n2cnc3c(N[C@H]4CCN(c5ccc(C(F)(F)F)cc5)C4)ncnc32)[C@@H]1O` [Example 10, (1R,2S,3R,5R)-3-{6-[1-(4-trifluoromethyl-phenyl-1-yl)-pyrrolidin-3(S)-ylamino]-purin-9-yl}-5-trifluoromethoxymethyl-cyclopentane-1,2-diol]: the melting point came out at 153 °C. In addition, the EC50 on Adenosine A3 receptor is greater than 50000 nM. Moreover, the EC50 at Adenosine A1 receptor amounted to 15400 nM. Moreover, the “EC50 values (agonist activity at adenosine receptors) A2B” value at Adenosine A2b receptor was “inactive”. For the same compound, on Adenosine A2a receptor, the “EC50 values (agonist activity at adenosine receptors) A2A” value is recorded as “Inactive”. For the same compound, in series [1], the Contractile force entry is on record as “+3% at 30 μM” and the Heart rate entry is given as “no effect at 1–100 μM”. The compound further returned an IC50 in the series with isolated rat adipocytes of 100 nM.

Values taken from patent US7265111B2, “Adenosine analogues and their use as pharmaceutical agents” (Sanofi-Aventis Deutschland GmbH, priority 2002, dated 2007).
